{"source": "patent US20190022041A1", "about": "“OIL PALM PHENOLICS COMPOSITION FOR THE PROTECTION OF HUMANS, ORGANS, CELLS AND TISSUES AGAINST THE INJURIOUS EFFECTS OF EXPOSURE TO IONIZING RADIATION” (Malaysian Palm Oil Board, priority 2015, published 2019)", "system": "HT-29 cells", "test": "number of colonies of HT-29 cells after gamma ionizing radiation", "type": "cell-based", "settings": "FIG. 3", "description": "For instance, lipid peroxidation levels of HT-29 by TBAR assay is protected by OPP against 800 and 1600 rads HT-29, as illustrated in graph of FIG. 2. […] Out of the three preparations, number of colonies of HT-29 is highest in case of de-phenolics."}
{"smiles": "O=C(O)C1=C[C@@H](O)[C@@H](O)[C@H](O)C1", "note": "[shikimic acid]", "values": [{"measurement": "number of colonies", "result": "abruptly increases"}]}
